“Also recorded” adds a separate entry of the source.
What was measured:
[1] = target: RPN13 and BRD4 (Homo sapiens, UniProt O60885+Q16186); assay: Dimerization assay of RPN13 and BRD4; assay type: binding; details: indicated concentrations
Excerpt: (§1) A dimerization assay was used to detect the RPN13 and BRD4 dimerization by RAJQ9 (FIG. 40A). […] New compounds were synthesized in the series using the same conditions as RAJQ9 synthesis (See FIG. 26). It was confirmed in the BRD4 assay that the exemplary BRD4 degrader compounds (RAJQ14, RAJQ14-ester) bind to BRD4 (FIG. 44). It was observed that Myc was lost with BRD4 degraders in the MCF7 breast cancer cell line (FIG. 45). For the results shown in FIG. 45, the cells used were MCF7 WT, the exemplary BRD4 degrader compound was RAJQ14 (at 3 μM concentration), and the time points shown in the assay were 2 hours, 6 hours, 16 hours, and 24 hours. […] For the results shown in FIG. 46, the cells used were MCF7 WT, the drug was the exemplary FKBP12 degrader RAFKBP4 (at 3 μM concentration), and the time points shown in the assay were 2 hours, 6 hours, 16 hours, and 24 hours.

[2] = target: T1, FKBP12 (Homo sapiens, UniProt P62942); assay: FKBP12 degradation in MCF7 breast cancer cell line; assay type: cell-based; details: MCF7 WT; 3 μM; 2, 6, 16 and 24 hours
T1 construct: the cells used were MCF7 WT; endogenous in cells; host or cells: MCF7 WT
Excerpt: as §1

Sequence of RPN13 and BRD4 (Q16186 whole entry, other chains not shown): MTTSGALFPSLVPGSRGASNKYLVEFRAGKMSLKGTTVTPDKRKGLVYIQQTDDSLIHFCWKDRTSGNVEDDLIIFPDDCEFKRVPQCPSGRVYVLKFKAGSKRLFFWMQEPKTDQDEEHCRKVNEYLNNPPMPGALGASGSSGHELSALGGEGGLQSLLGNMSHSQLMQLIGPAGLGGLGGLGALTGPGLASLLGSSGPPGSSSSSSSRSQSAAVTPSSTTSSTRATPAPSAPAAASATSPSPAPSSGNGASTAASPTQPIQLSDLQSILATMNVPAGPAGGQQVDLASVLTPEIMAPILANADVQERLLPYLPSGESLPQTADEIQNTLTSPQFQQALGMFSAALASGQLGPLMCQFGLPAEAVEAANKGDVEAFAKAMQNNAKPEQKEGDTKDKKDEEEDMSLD
T1 sequence (P62942 whole entry): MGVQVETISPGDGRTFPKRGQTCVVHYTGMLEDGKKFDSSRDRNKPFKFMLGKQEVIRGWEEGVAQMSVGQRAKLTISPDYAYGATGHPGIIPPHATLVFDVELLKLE

FKBP12 degradation in MCF7 cells [2]	SMILES	RPN13 and BRD4 dimerization [1]
–	Cc1sc2c(c1C)C(c1ccc(Cl)cc1)=N[C@@H](CC(=O)NCCN1CCN(CCCCCCOc3ccc(C[C@H](N)C(=O)N4C/C(=C\c5ccc(Cl)c(Cl)c5)C(=O)/C(=C/c5ccc(Cl)c(Cl)c5)C4)cc3)CC1)c1nnc(C)n1-2 [RAJQ9]	can bring these two proteins (RPN13 and BRD4) together; also recorded: can dimerize these two proteins together
FKBP12 degradation	CC[C@H](C(=O)N1CCCC[C@H]1C(=O)OC(CCc1ccc(OC)c(OC)c1)c1cccc(OCC(=O)NCCOCCOCCOCCC(=O)NCCOCCN[C@@H](Cc2ccccc2)C(=O)N2C/C(=C\c3ccc(Cl)c(Cl)c3)C(=O)/C(=C/c3ccc(Cl)c(Cl)c3)C2)c1)c1cc(OC)c(OC)c(OC)c1 (some centres unmarked) [RAFKBP4]	–

From US11802132B2, “Small molecules for inducing selective protein degradation and uses thereof” (DANA-FARBER CANCER INSTITUTE, INC., priority 2018, dated 2023)
